Measurements taken from publication PMC5991599, “Anti‐tumor efficacy of a novel CLK inhibitor via targeting RNA splicing and MYC‐dependent vulnerability” (EMBO Molecular Medicine, 2018).

Key:
[1] = tested on: MYC-driven breast tumor allograft; assay: Efficacy study in MMTV-MYC allograft model; format: in vivo, Balb/c nude mice; conditions: 50 mg/kg, twice daily on 2 days per week
Protocol: The transgenic MMTV‐MYC model was generated using the MMTV promoter as previously described (Muller et al, 1988) and was obtained from the Mouse Models of Human Cancer Consortium. The MYC‐driven breast tumor allograft model was established from a primary tumor of this model (females). Tumor cells were isolated using a cell strainer in the presence of RPMI. Viable cell count was determined, and 0.1 × 10^6 cells per mouse were subcutaneously injected in Balb/c nude animals (12‐week‐old females, Taconic Biosciences, Hudson, NY, USA) for subsequent propagation in the presence of Matrigel (BD, Franklin Lakes, NJ, USA) After two rounds of in vivo propagation, the tumor material was cryopreserved in liquid nitrogen. A small piece of the tumor was subcutaneously inoculated into Balb/c nude mice (7‐ to 8‐week‐old females), and the tumors were used for efficacy assessment.
Tumor volume=long diameter×short diameter×short diameter×(1/2)
Mice having a tumor of size approximately 200 mm^3 were used in efficacy or in vivo pharmacodynamics studies. T‐025 was dissolved in 0.5% methylcellulose solution. For the efficacy study, after randomized grouping, mice were treated with T‐025 twice daily once or twice weekly for 2 or 3 weeks. The mouse tumor volume and body weight were measured every 2–3 days.

SUM-159 xenografts = assay: In vivo anti-tumor efficacy study in SUM-159 xenografts; conditions: authors' response in review process file
Excerpt: EMBO Molecular Medicine - Peer Review Process File altering the spliciosome in non transformed cells (i.e. human mammary epithelial cells or MCF10A immortalized but not transform cells)
Although alternative splicing of BCLAF1 is reported to have an additional function in colorectal cancer (Zhou et al, 2014), the reported AS variant was different from the AS variant (lacking exon […]
AS in both cancer cell lines (HCT116) and untransformed cell lines (hTERT) (Funnell et al, 2017). […]
specific to transformed cells.
BJ) had relatively low expression of CLK2 and less growth-suppressive sensitivity to T-025 (Fig […]
rendered cancer cells more sensitive to T-025. […]
short-term treatment with T-025 causes apoptosis only in cancer cells with high expression of CLK2 or with activated MYC, but not in normal tissue. Therefore, in the mouse model, intermittent […]
- Figure 4 D, E, and F: it is not specified the name of all cancer dell lines used in the study. This is […]
relevant the work. If only SKBR3 and AU565 cell lines have a high MYC CVN, and consequently are more sensitive to T-025, why did the authors use MDA-MB 468 cell line to do the experiments of Figure 2 and 3? Please clarify. In addition, confirmation in an alternative breast cancer cell line is […]

CLK3 [2] = molecular target: T1, CLK3 (Homo sapiens, UniProt P49761); assay: KINOMEScan-based kinase selectivity assay; format: binding
Protocol: (§1) The KINOMEScan‐based kinase selectivity assay was performed at the DiscoverX Corporation (Fremont, CA, USA). The panel of growth inhibition assay and subsequent bioinformatics analysis (Fig EV1) were performed at Eurofins Inc. (St. […] Details of the procedures of cell proliferation assay, caspase‐3/7 activity assay, immunoblotting, and immunohistochemistry are described in Appendix Supplementary Methods.

DYRK1A = molecular target: T2, DYRK1A (Homo sapiens, UniProt Q13627); assay: KINOMEScan-based kinase selectivity assay; format: binding
T2 construct: purchased DiscoverX Corporation (Fremont, CA, USA)
Protocol: as §1

CLK1 [3] = molecular target: T3, CLK1 (Homo sapiens, UniProt P49759); assay: KINOMEScan-based kinase selectivity assay; format: binding
Protocol: as §1

ERK8 = molecular target: T4, ERK8 (Homo sapiens, UniProt Q8TD08); assay: KINOMEScan-based kinase selectivity assay; format: binding
T4 construct: purchased DiscoverX Corporation (Fremont, CA, USA)
Protocol: as §1

DYRK2 = molecular target: T5, DYRK2 (Homo sapiens, UniProt Q92630); assay: KINOMEScan-based kinase selectivity assay; format: binding
T5 construct: purchased DiscoverX Corporation (Fremont, CA, USA)
Protocol: as §1

IRAK4 = molecular target: T6, IRAK4 (Homo sapiens, UniProt Q9NWZ3); assay: KINOMEScan-based kinase selectivity assay; format: binding
T6 construct: purchased DiscoverX Corporation (Fremont, CA, USA)
Protocol: as §1

FLT3 D835H = molecular target: T7, FLT3 D835H (Homo sapiens, UniProt P36888, D835H); assay: KINOMEScan-based kinase selectivity assay; format: binding
T7 construct: purchased DiscoverX Corporation (Fremont, CA, USA)
Protocol: as §1

CLK4 = molecular target: T8, CLK4 (Homo sapiens, UniProt Q9HAZ1); assay: KINOMEScan-based kinase selectivity assay; format: binding
T8 construct: purchased DiscoverX Corporation (Fremont, CA, USA)
Protocol: as §1

CLK2 [4] = molecular target: T9, CLK2 (Homo sapiens, UniProt P49760); assay: KINOMEScan-based kinase selectivity assay; format: binding
Protocol: as §1

HIPK1 = molecular target: T10, HIPK1 (Homo sapiens, UniProt Q86Z02); assay: KINOMEScan-based kinase selectivity assay; format: binding
T10 construct: purchased DiscoverX Corporation (Fremont, CA, USA)
Protocol: as §1

YSK4 = molecular target: T11, YSK4 (Homo sapiens, UniProt Q56UN5); assay: KINOMEScan-based kinase selectivity assay; format: binding
T11 construct: purchased DiscoverX Corporation (Fremont, CA, USA)
Protocol: as §1

CLK3 [5] = molecular target: T1, CLK3; assay: Enzymatic assay; format: biochemical; conditions: read-out: IC50 (nmol/L) CLK3
Excerpt: (§2) Appendix Supplemental Methods

CLK1 [6] = molecular target: T3, CLK1; assay: Enzymatic assay; format: biochemical; conditions: read-out: IC50 (nmol/L) CLK1
Excerpt: as §2

DYRK1B = DYRK1B (Homo sapiens, UniProt Q9Y463); assay: Enzymatic assay; format: biochemical; conditions: read-out: IC50 (nmol/L) DYRK1B
Excerpt: as §2

CLK2 [7] = molecular target: T9, CLK2; assay: Enzymatic assay; format: biochemical; conditions: read-out: IC50 (nmol/L) CLK2
Excerpt: as §2

T1 sequence (P49761 whole entry): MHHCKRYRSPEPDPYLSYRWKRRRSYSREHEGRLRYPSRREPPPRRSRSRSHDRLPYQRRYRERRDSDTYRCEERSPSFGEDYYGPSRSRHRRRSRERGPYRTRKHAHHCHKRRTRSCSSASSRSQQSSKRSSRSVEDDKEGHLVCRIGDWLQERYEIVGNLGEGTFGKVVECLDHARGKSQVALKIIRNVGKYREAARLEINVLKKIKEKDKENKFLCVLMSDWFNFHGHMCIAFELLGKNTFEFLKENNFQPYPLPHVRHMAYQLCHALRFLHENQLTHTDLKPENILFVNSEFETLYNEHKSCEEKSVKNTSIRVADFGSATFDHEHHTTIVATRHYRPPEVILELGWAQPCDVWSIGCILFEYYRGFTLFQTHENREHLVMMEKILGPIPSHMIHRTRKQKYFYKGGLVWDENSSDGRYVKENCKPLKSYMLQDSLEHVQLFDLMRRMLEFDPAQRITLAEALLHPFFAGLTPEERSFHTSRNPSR
T3 sequence (P49759 whole entry): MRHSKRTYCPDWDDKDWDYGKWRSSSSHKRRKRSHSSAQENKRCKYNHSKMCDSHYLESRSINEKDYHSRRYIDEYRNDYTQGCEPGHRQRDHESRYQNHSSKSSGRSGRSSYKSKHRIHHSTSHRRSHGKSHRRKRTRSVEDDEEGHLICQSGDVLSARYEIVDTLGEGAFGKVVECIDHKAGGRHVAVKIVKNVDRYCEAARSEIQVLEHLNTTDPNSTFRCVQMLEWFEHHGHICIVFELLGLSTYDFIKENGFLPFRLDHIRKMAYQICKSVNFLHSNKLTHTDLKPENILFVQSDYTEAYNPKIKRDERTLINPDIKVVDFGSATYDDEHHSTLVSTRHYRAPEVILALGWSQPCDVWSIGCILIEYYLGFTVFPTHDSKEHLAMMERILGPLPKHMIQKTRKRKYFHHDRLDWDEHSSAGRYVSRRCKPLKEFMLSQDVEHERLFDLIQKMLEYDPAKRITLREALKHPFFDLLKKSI
T9 sequence (P49760 whole entry): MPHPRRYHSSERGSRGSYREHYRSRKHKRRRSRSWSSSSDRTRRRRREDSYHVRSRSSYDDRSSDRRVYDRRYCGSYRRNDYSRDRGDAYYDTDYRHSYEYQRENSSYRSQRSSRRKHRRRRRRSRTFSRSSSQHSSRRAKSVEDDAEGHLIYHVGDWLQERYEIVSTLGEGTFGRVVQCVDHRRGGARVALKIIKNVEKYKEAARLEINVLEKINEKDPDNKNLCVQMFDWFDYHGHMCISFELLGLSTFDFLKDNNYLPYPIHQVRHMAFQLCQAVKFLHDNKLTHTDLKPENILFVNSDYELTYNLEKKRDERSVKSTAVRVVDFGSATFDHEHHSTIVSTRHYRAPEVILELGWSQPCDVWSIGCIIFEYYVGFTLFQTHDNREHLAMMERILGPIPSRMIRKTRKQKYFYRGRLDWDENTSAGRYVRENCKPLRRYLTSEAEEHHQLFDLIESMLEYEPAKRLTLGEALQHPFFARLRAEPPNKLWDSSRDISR
T5 sequence (Q92630 whole entry): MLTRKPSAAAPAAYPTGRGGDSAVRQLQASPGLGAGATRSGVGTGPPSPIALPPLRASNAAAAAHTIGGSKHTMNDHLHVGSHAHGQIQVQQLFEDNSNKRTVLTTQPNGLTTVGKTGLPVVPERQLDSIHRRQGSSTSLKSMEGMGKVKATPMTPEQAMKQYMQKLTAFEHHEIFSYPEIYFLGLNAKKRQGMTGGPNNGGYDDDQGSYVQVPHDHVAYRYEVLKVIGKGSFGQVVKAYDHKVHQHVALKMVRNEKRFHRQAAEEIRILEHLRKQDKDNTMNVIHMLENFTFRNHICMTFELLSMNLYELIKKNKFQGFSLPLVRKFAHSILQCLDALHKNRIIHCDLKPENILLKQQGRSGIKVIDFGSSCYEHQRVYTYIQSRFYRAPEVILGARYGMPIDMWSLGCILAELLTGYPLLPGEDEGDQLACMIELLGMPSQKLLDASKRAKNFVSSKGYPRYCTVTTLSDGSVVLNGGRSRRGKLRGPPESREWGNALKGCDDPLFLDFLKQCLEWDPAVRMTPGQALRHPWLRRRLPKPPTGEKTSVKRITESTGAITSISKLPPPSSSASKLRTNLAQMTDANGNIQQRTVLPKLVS
T4 sequence (Q8TD08 whole entry): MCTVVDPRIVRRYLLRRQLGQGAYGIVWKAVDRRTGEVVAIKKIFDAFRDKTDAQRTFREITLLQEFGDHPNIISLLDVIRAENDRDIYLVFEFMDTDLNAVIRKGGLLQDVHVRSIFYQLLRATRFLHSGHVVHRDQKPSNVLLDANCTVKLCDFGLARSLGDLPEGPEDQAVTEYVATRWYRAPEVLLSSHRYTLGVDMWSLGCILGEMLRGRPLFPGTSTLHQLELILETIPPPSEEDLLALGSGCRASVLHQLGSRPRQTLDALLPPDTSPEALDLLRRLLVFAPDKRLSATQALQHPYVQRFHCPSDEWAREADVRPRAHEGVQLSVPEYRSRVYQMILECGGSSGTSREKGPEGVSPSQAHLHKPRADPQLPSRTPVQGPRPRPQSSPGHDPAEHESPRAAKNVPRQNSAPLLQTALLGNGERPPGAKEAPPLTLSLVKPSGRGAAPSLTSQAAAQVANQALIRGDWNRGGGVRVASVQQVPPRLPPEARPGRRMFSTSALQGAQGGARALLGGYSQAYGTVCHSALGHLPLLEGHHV
T11 sequence (Q56UN5 whole entry): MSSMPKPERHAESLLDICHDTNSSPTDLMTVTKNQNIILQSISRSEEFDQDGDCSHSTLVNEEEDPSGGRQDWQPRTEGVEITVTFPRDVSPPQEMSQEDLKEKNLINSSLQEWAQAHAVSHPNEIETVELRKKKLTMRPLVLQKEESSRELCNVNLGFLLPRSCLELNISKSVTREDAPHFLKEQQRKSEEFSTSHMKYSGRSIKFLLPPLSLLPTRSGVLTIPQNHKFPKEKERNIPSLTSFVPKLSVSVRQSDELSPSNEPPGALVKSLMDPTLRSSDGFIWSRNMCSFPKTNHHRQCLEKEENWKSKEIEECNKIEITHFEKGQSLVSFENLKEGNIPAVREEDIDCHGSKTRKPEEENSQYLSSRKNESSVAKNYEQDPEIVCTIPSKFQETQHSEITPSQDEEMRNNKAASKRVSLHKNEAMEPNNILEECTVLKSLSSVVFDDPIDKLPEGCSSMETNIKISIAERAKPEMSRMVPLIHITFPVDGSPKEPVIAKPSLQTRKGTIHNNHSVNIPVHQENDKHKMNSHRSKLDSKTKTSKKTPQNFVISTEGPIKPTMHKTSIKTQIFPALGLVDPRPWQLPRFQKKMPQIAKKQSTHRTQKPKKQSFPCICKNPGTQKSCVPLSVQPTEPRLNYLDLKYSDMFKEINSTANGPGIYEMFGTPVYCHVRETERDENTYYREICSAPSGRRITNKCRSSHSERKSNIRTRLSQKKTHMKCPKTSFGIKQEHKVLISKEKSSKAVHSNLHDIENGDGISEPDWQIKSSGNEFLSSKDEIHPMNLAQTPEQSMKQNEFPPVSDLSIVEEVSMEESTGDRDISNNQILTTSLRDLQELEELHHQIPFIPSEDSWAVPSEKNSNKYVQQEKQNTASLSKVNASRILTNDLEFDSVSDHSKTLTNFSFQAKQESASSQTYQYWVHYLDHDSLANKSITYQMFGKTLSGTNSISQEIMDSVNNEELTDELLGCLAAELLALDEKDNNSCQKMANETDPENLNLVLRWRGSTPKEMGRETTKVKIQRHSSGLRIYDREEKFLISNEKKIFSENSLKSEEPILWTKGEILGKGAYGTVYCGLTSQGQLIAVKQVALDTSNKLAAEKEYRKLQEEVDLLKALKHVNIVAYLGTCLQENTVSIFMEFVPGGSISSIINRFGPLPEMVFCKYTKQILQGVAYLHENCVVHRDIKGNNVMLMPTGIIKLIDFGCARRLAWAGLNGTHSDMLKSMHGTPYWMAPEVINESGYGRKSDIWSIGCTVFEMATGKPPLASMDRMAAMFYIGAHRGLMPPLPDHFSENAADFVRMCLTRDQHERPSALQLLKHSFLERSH
T8 sequence (Q9HAZ1 whole entry): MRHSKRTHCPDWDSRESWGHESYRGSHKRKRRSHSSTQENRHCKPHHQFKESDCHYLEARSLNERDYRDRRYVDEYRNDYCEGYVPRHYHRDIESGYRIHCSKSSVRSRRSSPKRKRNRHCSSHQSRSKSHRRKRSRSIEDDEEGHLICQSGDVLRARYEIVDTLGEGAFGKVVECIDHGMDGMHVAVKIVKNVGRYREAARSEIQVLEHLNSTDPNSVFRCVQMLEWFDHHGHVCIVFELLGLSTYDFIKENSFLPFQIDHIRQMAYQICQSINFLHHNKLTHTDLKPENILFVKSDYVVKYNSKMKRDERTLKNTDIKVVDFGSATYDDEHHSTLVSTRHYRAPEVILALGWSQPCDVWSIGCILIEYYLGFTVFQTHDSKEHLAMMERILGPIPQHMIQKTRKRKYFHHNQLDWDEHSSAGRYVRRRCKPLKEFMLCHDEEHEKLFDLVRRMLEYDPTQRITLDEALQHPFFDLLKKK
T6 sequence (Q9NWZ3 whole entry): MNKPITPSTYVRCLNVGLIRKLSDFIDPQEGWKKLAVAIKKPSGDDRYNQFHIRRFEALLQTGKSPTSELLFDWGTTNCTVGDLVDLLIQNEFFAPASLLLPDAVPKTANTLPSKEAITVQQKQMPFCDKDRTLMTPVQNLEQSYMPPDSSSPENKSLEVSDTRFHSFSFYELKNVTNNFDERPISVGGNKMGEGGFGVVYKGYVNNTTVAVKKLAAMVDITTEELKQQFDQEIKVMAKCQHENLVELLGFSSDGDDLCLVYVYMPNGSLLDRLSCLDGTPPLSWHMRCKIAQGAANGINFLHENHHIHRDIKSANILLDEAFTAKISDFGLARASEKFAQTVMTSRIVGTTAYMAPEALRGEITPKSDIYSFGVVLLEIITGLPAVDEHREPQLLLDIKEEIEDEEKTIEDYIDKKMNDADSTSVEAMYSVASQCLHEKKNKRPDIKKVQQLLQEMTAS

CNc1nc(NCc2ncccn2)c2c(-c3ccc4ncccc4c3)c[nH]c2n1 [T-025, N ^2‐methyl‐N ^4‐[pyrimidin‐2‐ylmethyl]‐5‐[quinolin‐6‐yl]‐7H‐pyrrolo[2,3‐d]pyrimidine‐2,4‐diamine]
anti-tumor efficacy, tumor growth [1]: strongly suppressed growth of the allograft tumors
body weight loss [1]: without inducing body weight losses
anti-tumor efficacy (SUM-159 xenografts): showed significant anti-tumor properties
Kd (CLK3 [2]): 6.5 nM
inhibition at 0.3 µM (CLK3 [2]; 300 nmol/L, n = 2): 90.2%
Kd (DYRK1A): 0.074 nM
inhibition at 0.3 µM (DYRK1A; 300 nmol/L, n = 2): 100%
Kd (CLK1 [3]): 4.8 nM
inhibition at 0.3 µM (CLK1 [3]; 300 nmol/L, n = 2): 99.4%
Kd (ERK8): 140 nM
inhibition at 0.3 µM (ERK8; 300 nmol/L, n = 2): 94.8%
Kd (DYRK2): 32 nM
inhibition at 0.3 µM (DYRK2; 300 nmol/L, n = 2): 98.6%
Kd (IRAK4): 54 nM
inhibition at 0.3 µM (IRAK4; 300 nmol/L, n = 2): 94.8%
Kd (FLT3 D835H): 94 nM
inhibition at 0.3 µM (FLT3 D835H; 300 nmol/L, n = 2): 98.8%
Kd (CLK4): 0.61 nM
inhibition at 0.3 µM (CLK4; 300 nmol/L, n = 2): 100%
Kd (CLK2 [4]): 0.096 nM
inhibition at 0.3 µM (CLK2 [4]; 300 nmol/L, n = 2): 93.1%
Kd (HIPK1): 55 nM
inhibition at 0.3 µM (HIPK1; 300 nmol/L, n = 2): 94.6%
Kd (YSK4): 33 nM
inhibition at 0.3 µM (YSK4; 300 nmol/L, n = 2): 97.5%
IC50 (CLK3 [5]): 14 nmol/L
IC50 (CLK1 [6]): 0.93 nmol/L
IC50 (DYRK1B): 1.5 nmol/L
IC50 (CLK2 [7]): 1 nmol/L
